Results reported in PubChem BioAssay (NCI).
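48-hour exposure; five concentrations; linearly interpolated endpoints. TGI denotes the concentration required for complete inhibition of growth.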 *1 amine or outer side, *2 acyl side, *3 side chain or, on linkers, in order; H or OH if unused. Where a SMILES comes first, the peptide text is derived from it. The star is where a group is joined. γGlu = O=C(O)[CH](CCC(=O)[*:2])N[*:1]; NHOH = ON*

Tests used:
Test in all cases: inhibition of tumour cell growth, NCI panel, 48 h
DU-145 prostate = system: DU-145 prostate
HCT-15 colon = system: HCT-15 colon
HOP-92 NSCLC = system: HOP-92 NSCLC
K-562 leukemia = system: K-562 leukemia
M14 melanoma = system: M14 melanoma
MOLT-4 leukemia = system: MOLT-4 leukemia
NCI-H226 lung = system: NCI-H226 lung
OVCAR-8 ovarian = system: OVCAR-8 ovarian
PC-3 prostate = system: PC-3 prostate
SNB-19 CNS = system: SNB-19 CNS

Row | Compound | TGI (DU-145 prostate) | TGI (HCT-15 colon) | TGI (HOP-92 NSCLC) | TGI (K-562 leukemia) | TGI (M14 melanoma) | TGI (MOLT-4 leukemia) | TGI (NCI-H226 lung) | TGI (OVCAR-8 ovarian) | TGI (PC-3 prostate) | TGI (SNB-19 CNS)
1 | O=[N+]([O-])C1=Cc2c(O)ccc(O)c2C2OC=CC12 (stereo not given) | > 54.6 µM | 37 µM | 58.8 µM | > 100 µM | 34.5 µM | > 46.8 µM | > 73.8 µM | > 56.2 µM | 31 µM | 52.2 µM
2 | CC(=O)N1N=C(c2ccccc2)NC(=O)C1c1cc(C)c(O)c(C)c1 (stereo not given) | 57.5 µM | > 100 µM | 38.8 µM | > 100 µM | > 100 µM | > 100 µM | 49.7 µM | 31.4 µM | 79.7 µM | 50.9 µM
3 | COP(=O)(OC)[C@@](O)(c1ccccc1)[C@@H](O)[C@H](O)c1ccccc1 | > 100 µM | > 100 µM | > 100 µM | > 100 µM | > 100 µM | > 100 µM | > 100 µM | > 100 µM | > 100 µM | > 100 µM
4 | Cc1cc2c(cc1Cl)SSc1cc(Cl)c(C)cc1S(=O)(=O)Nc1nc(N)nn1C(O)n1nc(N)nc1NS2(=O)=O | > 10 µM | > 10 µM | > 10 µM | > 10 µM | > 10 µM | > 10 µM | > 10 µM | > 10 µM | > 10 µM | > 10 µM
5 | CCOP(=O)(OCC)/C(C#N)=C/c1nc[nH]c1C | > 100 µM | > 100 µM | > 100 µM | > 100 µM | > 100 µM | > 100 µM | > 100 µM | > 100 µM | > 100 µM | > 100 µM
6 | Cc1ccc2[nH]c3c(c2c1)C1CCC(C(C)(C)C)CC1C1C(=O)N(c2ccc(Oc4ccccc4)cc2)C(=O)C31 (stereo not given) | > 100 µM | > 100 µM | 45.7 µM | 31.3 µM | > 100 µM | 7.92 µM | > 86.9 µM | 38.6 µM | > 100 µM | > 71.9 µM
7 | Cc1cc2c3c(c1)S(=O)(=O)c1cc(Cl)ccc1N3CCC2 | > 100 µM | > 100 µM | > 100 µM | > 100 µM | > 100 µM | > 100 µM | > 100 µM | > 100 µM | > 100 µM | > 100 µM
8 | COc1ccc(OC)c([N+](=O)[O-])c1-c1nc2sc(Cl)cn2c1/C=N/N=C(N)N | 42.8 µM | > 100 µM | 31.2 µM | 56.3 µM | > 100 µM | 23.2 µM | 44.1 µM | 43.1 µM | 41.8 µM | 43.4 µM
9 | CCN(CC)C1=Nc2ccccc2-n2ccnc2C1 | > 100 µM | > 100 µM | > 100 µM | > 100 µM | > 100 µM | > 100 µM | > 100 µM | > 100 µM | > 100 µM | > 100 µM
10 | Cc1cccc(-c2cc(=O)c3cccnc3[nH]2)c1 | > 100 µM | > 100 µM | > 100 µM | > 100 µM | > 100 µM | > 100 µM | > 100 µM | 53.6 µM | > 100 µM | > 100 µM
11 | Fc1ccc(/C=C2\COCC3=C2NC(=S)NC3c2ccc(F)cc2)cc1 (stereo not given) | 77.3 µM | 32.1 µM | 34 µM | 44.6 µM | 30.1 µM | 54 µM | 45.1 µM | 30 µM | 33 µM | 47.7 µM
12 | COc1ccc(Nc2nc3ccccc3nc2-c2cccs2)cc1OC | > 10 µM | > 10 µM | > 10 µM | > 10 µM | > 10 µM | > 10 µM | > 10 µM | > 10 µM | > 10 µM | > 10 µM
13 | CC1=NN(c2ccccc2)C(=O)/C1=C1\SC(c2ccccc2)(c2ccccc2)c2ccccc21 | > 100 µM | > 100 µM | > 100 µM | > 100 µM | > 100 µM | > 100 µM | > 100 µM | > 100 µM | > 100 µM | > 100 µM
14 | O=C1C(NS(=O)(=O)c2ccccc2)=C(n2ccnc2)C(=O)c2ccccc21 | > 100 µM | > 100 µM | > 100 µM | > 100 µM | > 100 µM | > 100 µM | > 100 µM | > 100 µM | > 100 µM | > 100 µM
15 | COc1cc2ncnc(Nc3cccc(Br)c3)c2cc1OC | 34.2 µM | 22.7 µM | 36.3 µM | > 55.5 µM | 20.6 µM | > 65.5 µM | 18.5 µM | > 35.1 µM | > 37.2 µM | > 77.4 µM
16 | Cc1ccc(N=NC(=Nc2ccc(F)cc2)c2ccc(N(CCC#N)CCC#N)cc2)cc1 | > 100 µM | > 100 µM | > 100 µM | > 100 µM | > 100 µM | > 100 µM | > 100 µM | > 100 µM | > 100 µM | > 100 µM
17 | O=C1O/C(=C(\Br)c2ccc([N+](=O)[O-])cc2)c2ccccc21 | > 100 µM | > 81.5 µM | > 100 µM | > 100 µM | > 100 µM | > 69.1 µM | > 100 µM | > 100 µM | > 100 µM | > 100 µM
18 | O=C(Nc1ccc(Cl)cc1)c1cc(S(=O)(=O)Nc2nc3ncccc3[nH]2)c(SSc2cc(Cl)c(C(=O)Nc3ccc(Cl)cc3)cc2S(=O)(=O)Nc2nc3ncccc3[nH]2)cc1Cl | > 100 µM | > 100 µM | > 100 µM | > 100 µM | > 100 µM | > 100 µM | > 100 µM | > 100 µM | > 100 µM | > 100 µM

Row | Compound | TGI (DU-145 prostate) | TGI (HCT-15 colon) | TGI (HOP-92 NSCLC) | TGI (K-562 leukemia) | TGI (M14 melanoma) | TGI (MOLT-4 leukemia) | TGI (NCI-H226 lung) | TGI (OVCAR-8 ovarian) | TGI (PC-3 prostate) | TGI (SNB-19 CNS)
19 | CN(C)N1C(=C(C#N)C#N)C(c2ccccc2)CC1C#N (stereo not given) | > 100 µM | > 100 µM | > 100 µM | > 100 µM | > 100 µM | > 100 µM | > 100 µM | > 100 µM | > 100 µM | > 100 µM
20 | C[N+](C)(N)Cc1nc(-c2ccc(Cl)cc2)no1 | > 100 µM | > 100 µM | > 100 µM | > 100 µM | > 100 µM | > 100 µM | > 100 µM | > 100 µM | > 100 µM | > 100 µM
21 | O=C1c2cccnc2S(=O)(=O)N1c1ccc(Br)cc1 | > 100 µM | > 100 µM | > 100 µM | > 100 µM | > 100 µM | > 100 µM | > 100 µM | > 100 µM | > 100 µM | > 100 µM
22 | Cc1c2ccccc2c(/C=N/NC(=O)CSCC(=O)N/N=C/c2c3ccccc3c(C)c3ccccc23)c2ccccc12 | > 100 µM | > 100 µM | 38.6 µM | > 100 µM | > 100 µM | > 87.8 µM | > 61.1 µM | > 86.4 µM | > 67.5 µM | > 100 µM
23 | CCN1CC2=C(OC(N)=C(C#N)C2c2ccc(Cl)cc2)/C(=C/c2ccc(Cl)cc2)C1 (stereo not given) | > 100 µM | > 100 µM | 58.6 µM | > 100 µM | > 100 µM | > 100 µM | 94.3 µM | > 100 µM | 98.9 µM | 51 µM
24 | Cc1cccc(C)c1NC(=S)N/C=C(\C#N)C(N)=O | > 100 µM | > 100 µM | > 100 µM | > 100 µM | > 100 µM | > 100 µM | > 100 µM | > 100 µM | > 100 µM | > 100 µM
25 | COc1ccc(C2c3cc4c(cc3OC(N3CCOCC3)C2C)OCO4)cc1OC (stereo not given) | > 79.7 µM | > 100 µM | > 92.3 µM | > 56.5 µM | 52.3 µM | 77.9 µM | 31.7 µM | > 100 µM | > 100 µM | 77.6 µM
26 | O=S(=O)(O)c1cc(O)c(N=NC2S(=O)(=O)OCCOS2(=O)=O)c2ccccc12 | > 100 µM | > 100 µM | > 100 µM | > 100 µM | > 100 µM | > 100 µM | > 100 µM | > 100 µM | > 100 µM | > 100 µM
27 | CC(Nc1cccc(Cl)c1)c1ccncc1 (stereo not given) | > 100 µM | > 100 µM | > 100 µM | > 100 µM | > 100 µM | > 100 µM | > 100 µM | > 100 µM | > 100 µM | > 100 µM
28 | CCOC(=O)c1nc(SC)sc1NC(=O)c1ccc(OC)cc1 | > 100 µM | > 100 µM | > 100 µM | > 100 µM | > 100 µM | > 100 µM | > 100 µM | > 100 µM | > 100 µM | > 100 µM
29 | NC(CCC(=O)NC(CCC(=O)NO)C(=O)NCC(=O)O)C(=O)O (stereo not given) (γGlu-Glu(NHOH)-Gly-OH; configuration not given here) | > 100 µM | > 100 µM | > 100 µM | > 100 µM | > 100 µM | > 100 µM | > 100 µM | > 100 µM | > 100 µM | > 100 µM
30 | CCOC(=O)CCCN | > 100 µM | > 100 µM | > 100 µM | > 100 µM | > 100 µM | > 100 µM | > 100 µM | > 100 µM | > 100 µM | > 100 µM
31 | COc1nc2ncc([C@@H](OC(C)=O)[C@@H](COC(C)=O)OC(C)=O)nc2c(=O)n1C | > 100 µM | > 100 µM | > 100 µM | > 100 µM | > 100 µM | > 100 µM | > 100 µM | > 100 µM | > 100 µM | > 100 µM
32 | C[C@]12C(=O)OC[C@H](c3ccccc3)N1C(=O)N(Cc1ccccc1)[C@@H]2CO | > 100 µM | > 100 µM | > 100 µM | > 100 µM | > 100 µM | > 100 µM | > 100 µM | > 100 µM | > 100 µM | > 100 µM
33 | CCO/C(O)=c1/s/c(=C2/SC(=S)N(c3ccc(C)cc3)C2=O)n(-c2ccccc2)c1=N | > 100 µM | > 100 µM | > 100 µM | > 100 µM | > 100 µM | > 100 µM | > 76.9 µM | > 100 µM | > 100 µM | > 100 µM
34 | CN(C)CC1CCC/C(=C\c2ccc(Cl)c(Cl)c2)C1=O (stereo not given) | 23 µM | 6.33 µM | 13.4 µM | 5.47 µM | 11.2 µM | 4.83 µM | 24.5 µM | 9.89 µM | > 33.5 µM | 22.4 µM
35 | CCCCOc1ccc(/C=C/C2=[N+](CCO)CCO2)cc1 | > 100 µM | > 100 µM | > 100 µM | 66.5 µM | > 100 µM | > 100 µM | 70 µM | > 100 µM | > 100 µM | > 100 µM
36 | C/C(=N/NC(=S)N1CCCCCC1)c1cccc(/C(C)=N\NC(=S)N2CCCCCC2)n1 | 6.04 µM | 5.36 µM | 3.58 µM | 6.58 µM | 3.53 µM | 6.34 µM | 3.31 µM | 3.11 µM | 5.2 µM | 9.43 µM
